What was measured:
KR158 cells [1] = assay: Crystal violet, single lucanthone long-term treatment; assay type: cell-based, mouse; settings: 10 μM every 4 days for 2 weeks
Protocol: (§1) For single lucanthone treatment studies, GLUC2 and KRISS cells were plated at a density of 2,000 and 1,000 cells per well, respectively, in a 6-well plate and allowed to adhere overnight. They were then treated with 10 μM lucanthone every 4 days for 12 days. On day 13, media were aspirated, and cells were fixed with 4% PFA for 10 minutes. Cells were then treated with 0.5% crystal violet solution for 20 minutes. Plates were washed and photographed.

GLUC2 cells = assay: as above; assay type: cell-based, mouse; settings: 10 μM every 4 days for 2 weeks
Protocol: as §1

[2] = test system: lysosomes and mitochondria in GBM9 and GBM43 stem-like cells; assay: Lysotracker red and DIOC63 imaging; assay type: cell-based, human; settings: 3 uM, 24 hours
GLUC2 (GL261) cells = assay: Crystal violet, dual treatment (lucanthone and TMZ); assay type: cell-based, mouse
Protocol: (§2) For dual treatment studies (lucanthone and TMZ), GLUC2 and KR158 cells were plated at a density of 2,500 and 1,000 cells per well in a 12-well plate and allowed to adhere overnight. Cells were then treated with medium, TMZ, lucanthone, or a combination for 4 days. The media were aspirated, and the cells were washed with PBS once and incubated with standard medium for 3 days. The cells were fixed with PFA and treated with 0.5% crystal violet solution as above and photographed. Then lysis solution of 10% SDS in dH2O was added to the plates overnight. To quantify relative crystal violet intensity, the absorbance of the crystal violet-containing supernatant was read under a spectrophotometer at 590 nm with a reference wavelength of 670 nm. Data are graphed as percent of control (medium only-treated cells).,

KR158 cells [3] = assay: as above; assay type: cell-based, mouse
Protocol: as §2

GBM43 CSC = assay: Combination with radiation or temozolomide, MTT assay; assay type: cell-based, human; settings: 5 days
Protocol: (§3) To examine the interaction between lucanthone and ionizing radiation, 3000 GBM9 or GBM43 CSC were plated in a 96-well plate and allowed to adhere overnight. 1 hour prior to radiation, cells were treated with 1 or 3 uM lucanthone. Radiation was accomplished using a 100 kVp animal irradiator (Phillips RT-100) which irradiates at 0.75 gy per minute. After radiation, cells were incubated for 5 days, after which an MTT assay was performed.

GBM9 CSC = assay: as above; assay type: cell-based, human
Protocol: as §3

[4] = test system: GLUC2 GSC intracranial gliomas (tumor microenvironment); assay: Immunohistochemistry of tumors from the murine glioma model; assay type: in vivo, mouse
Protocol: Gliomas were established in 3-4 month old male and female mice as described previously (3, 4, 33). GLUC2 GSC were dissociated with accutase and counted. Mice were anesthetized with 20 mg/kg avertin, a midline incision was made in the scalp, the skin retracted and a small burr hole was drilled in the skull at the following stereotactic coordinates from bregma: −lmm anteroposterior and +2 mediolateral. l×10^5 GLUC2 GSC resuspended in PBS were injected over a period of 2 minutes at a depth of 3 mm. At the end of the injection, the needle was kept in the injection site for a further 3 minutes. After needle removal, the incision was sutured and mice were placed on a heating pad until they fully recovered from anesthesia. […] All animal procedures were approved by the Stony Brook University Institutional Animal Care and Use Committee.
Lucanthone was solubilized in 10% DMSO, 40% HPCD in PBS. After confirming the presence of gliomas on day 7, mice were randomly divided to control and treatment groups, and treated with either saline or 50 mg/kg lucanthone i.p. every day from day 7 to day 20. On day 21, tumors were visualized by bioluminescent imaging, as above.
Mice were anesthetized with 20 mg/kg avertin and transcardially perfused with 30 ml PBS followed by 30 ml 4% PFA in PBS. Brains were removed and post-fixed in 4% PFA in PBS overnight. They were dehydrated for 48 hours in 30% w/v sucrose in PBS. Brains were then embedded in optimal cutting temperature compound (OCT, Tissue-Tek) and 20 μm coronal sections throughout the entire tumor were taken on a Leica cryostat (Nusslock, Germany) and collected on Superfrost plus microscope slides. To determine tumor volume, serial sections were taken from each animal and subjected to hematoxylin and eosin stain. Tumor volume was calculated as tumor area×20 μm thickness, x number of slides (34).
For immunohistochemical analysis, slides were brought to room temperature, washed 3× with 0.3% TX-100 in PBS and then blocked with 1% BSA/0.3% TX-100 in PBS for 1 hour. Slides were incubated overnight with appropriate primary antibodies (Table 1). The primary antibody was removed and slides were washed 3× 0.3% TX-100 in PBS and incubated with appropriate secondary antibodies for 1 hour. Slides were washed 3× with PBS, and counterstained with DAPI. Immunoreactivity was visualized by confocal imaging using the Leica SP8-x system, with white light and argon lasers.

[5] = 1 μM lucanthone alone, 4 days then 3 days recovery
[6] = combination of lucanthone and TMZ, p<0.05, King's synergy test

`CCN(CC)CCNc1ccc(C)c2sc3ccccc3c(=O)c12` [lucanthone] was tested, and the proliferation (KR158 cells [1]) was “hindered”, the proliferation (GLUC2 cells) was “hindered” and the “DIOC63 staining (healthy mitochondria)” value [2] was “substantial reduction”. For the same compound, the “effect on lysosomes (lysotracker red)” value [2] was “lysosome dilation”, the “effect on cells (crystal violet)” value (GLUC2 (GL261) cells; [5]) was “modest effect” and the crystal violet intensity (GLUC2 (GL261) cells; [6]) was “markedly decreased”. The “effect on cells (crystal violet)” value (KR158 cells [3]; [5]) was “modest effect”, the crystal violet intensity (KR158 cells [3]; [6]) was “markedly decreased” and the reduction of viability (GBM43 CSC; lucanthone alone) was 15%. The reduction of viability (GBM43 CSC; lucanthone combined with radiation) was “about 30%”, the effect on viability (GBM9 CSC; lucanthone alone) was “minimal effects” and the reduction of viability (GBM9 CSC; lucanthone together with radiation, 5 days) was −45%. The CD31 intensity ([4]; 50 mg/kg vs control) was “diminished”, the “Glut1 positivity (tumor hypoxia)” value ([4]; 50 mg/kg vs control) was “minimal” and the “blood vessel luminal areas” value ([4]; 50 mg/kg vs control) was “substantially increased”. The “blood vessel size (CD31)” value ([4]; 50 mg/kg vs control) was “smaller”, the “blood vessel tortuosity and circularity” value ([4]; 50 mg/kg vs control) was “less tortuous and more circular” and the “levels of Glut4” value ([4]; 50 mg/kg vs control) was “not affected”. For the same compound, the HSP60 levels ([4]; 50 mg/kg vs saline) was “Increased levels”, the Ki67 positivity ([4]; 50 mg/kg vs saline) was “similar” and the “Olig2 positivity at tumor periphery and core” value ([4]; 50 mg/kg vs saline) was “striking reduction”. The SOX2 expression ([4]; 50 mg/kg vs saline) was “not significantly different”, the yH2AX positivity ([4]; 50 mg/kg vs saline) was “increased” and the P2RY12 levels ([4]; among treatment groups) was “similar”. The “numbers of cytotoxic T cells (CD8a+) in the center of tumors” value ([4]; treated versus control mice) was “substantial increase”.

Source: US20250295629A1, “COMPOSITIONS AND METHODS FOR TREATING CANCERS OF THE CENTRAL NERVOUS SYSTEM (CNS), INCLUDING GLIOBLASTOMA AND CHEMORESISTANT CNS TUMORS, AND RELATED COMPOSITIONS AND METHODS FOR INHIBITING AND ELIMINATING CNS CANCER STEM CELLS” (priority 2022, published 2025)
